{"source": "BindingDB's records for doi:10.1021/acs.jmedchem.6b00799", "about": "(Glaxosmithkline R&D, 2016)", "target": "DNA-dependent protein kinase catalytic subunit (Homo sapiens, UniProt P78527)", "sequence (P78527 whole entry)": "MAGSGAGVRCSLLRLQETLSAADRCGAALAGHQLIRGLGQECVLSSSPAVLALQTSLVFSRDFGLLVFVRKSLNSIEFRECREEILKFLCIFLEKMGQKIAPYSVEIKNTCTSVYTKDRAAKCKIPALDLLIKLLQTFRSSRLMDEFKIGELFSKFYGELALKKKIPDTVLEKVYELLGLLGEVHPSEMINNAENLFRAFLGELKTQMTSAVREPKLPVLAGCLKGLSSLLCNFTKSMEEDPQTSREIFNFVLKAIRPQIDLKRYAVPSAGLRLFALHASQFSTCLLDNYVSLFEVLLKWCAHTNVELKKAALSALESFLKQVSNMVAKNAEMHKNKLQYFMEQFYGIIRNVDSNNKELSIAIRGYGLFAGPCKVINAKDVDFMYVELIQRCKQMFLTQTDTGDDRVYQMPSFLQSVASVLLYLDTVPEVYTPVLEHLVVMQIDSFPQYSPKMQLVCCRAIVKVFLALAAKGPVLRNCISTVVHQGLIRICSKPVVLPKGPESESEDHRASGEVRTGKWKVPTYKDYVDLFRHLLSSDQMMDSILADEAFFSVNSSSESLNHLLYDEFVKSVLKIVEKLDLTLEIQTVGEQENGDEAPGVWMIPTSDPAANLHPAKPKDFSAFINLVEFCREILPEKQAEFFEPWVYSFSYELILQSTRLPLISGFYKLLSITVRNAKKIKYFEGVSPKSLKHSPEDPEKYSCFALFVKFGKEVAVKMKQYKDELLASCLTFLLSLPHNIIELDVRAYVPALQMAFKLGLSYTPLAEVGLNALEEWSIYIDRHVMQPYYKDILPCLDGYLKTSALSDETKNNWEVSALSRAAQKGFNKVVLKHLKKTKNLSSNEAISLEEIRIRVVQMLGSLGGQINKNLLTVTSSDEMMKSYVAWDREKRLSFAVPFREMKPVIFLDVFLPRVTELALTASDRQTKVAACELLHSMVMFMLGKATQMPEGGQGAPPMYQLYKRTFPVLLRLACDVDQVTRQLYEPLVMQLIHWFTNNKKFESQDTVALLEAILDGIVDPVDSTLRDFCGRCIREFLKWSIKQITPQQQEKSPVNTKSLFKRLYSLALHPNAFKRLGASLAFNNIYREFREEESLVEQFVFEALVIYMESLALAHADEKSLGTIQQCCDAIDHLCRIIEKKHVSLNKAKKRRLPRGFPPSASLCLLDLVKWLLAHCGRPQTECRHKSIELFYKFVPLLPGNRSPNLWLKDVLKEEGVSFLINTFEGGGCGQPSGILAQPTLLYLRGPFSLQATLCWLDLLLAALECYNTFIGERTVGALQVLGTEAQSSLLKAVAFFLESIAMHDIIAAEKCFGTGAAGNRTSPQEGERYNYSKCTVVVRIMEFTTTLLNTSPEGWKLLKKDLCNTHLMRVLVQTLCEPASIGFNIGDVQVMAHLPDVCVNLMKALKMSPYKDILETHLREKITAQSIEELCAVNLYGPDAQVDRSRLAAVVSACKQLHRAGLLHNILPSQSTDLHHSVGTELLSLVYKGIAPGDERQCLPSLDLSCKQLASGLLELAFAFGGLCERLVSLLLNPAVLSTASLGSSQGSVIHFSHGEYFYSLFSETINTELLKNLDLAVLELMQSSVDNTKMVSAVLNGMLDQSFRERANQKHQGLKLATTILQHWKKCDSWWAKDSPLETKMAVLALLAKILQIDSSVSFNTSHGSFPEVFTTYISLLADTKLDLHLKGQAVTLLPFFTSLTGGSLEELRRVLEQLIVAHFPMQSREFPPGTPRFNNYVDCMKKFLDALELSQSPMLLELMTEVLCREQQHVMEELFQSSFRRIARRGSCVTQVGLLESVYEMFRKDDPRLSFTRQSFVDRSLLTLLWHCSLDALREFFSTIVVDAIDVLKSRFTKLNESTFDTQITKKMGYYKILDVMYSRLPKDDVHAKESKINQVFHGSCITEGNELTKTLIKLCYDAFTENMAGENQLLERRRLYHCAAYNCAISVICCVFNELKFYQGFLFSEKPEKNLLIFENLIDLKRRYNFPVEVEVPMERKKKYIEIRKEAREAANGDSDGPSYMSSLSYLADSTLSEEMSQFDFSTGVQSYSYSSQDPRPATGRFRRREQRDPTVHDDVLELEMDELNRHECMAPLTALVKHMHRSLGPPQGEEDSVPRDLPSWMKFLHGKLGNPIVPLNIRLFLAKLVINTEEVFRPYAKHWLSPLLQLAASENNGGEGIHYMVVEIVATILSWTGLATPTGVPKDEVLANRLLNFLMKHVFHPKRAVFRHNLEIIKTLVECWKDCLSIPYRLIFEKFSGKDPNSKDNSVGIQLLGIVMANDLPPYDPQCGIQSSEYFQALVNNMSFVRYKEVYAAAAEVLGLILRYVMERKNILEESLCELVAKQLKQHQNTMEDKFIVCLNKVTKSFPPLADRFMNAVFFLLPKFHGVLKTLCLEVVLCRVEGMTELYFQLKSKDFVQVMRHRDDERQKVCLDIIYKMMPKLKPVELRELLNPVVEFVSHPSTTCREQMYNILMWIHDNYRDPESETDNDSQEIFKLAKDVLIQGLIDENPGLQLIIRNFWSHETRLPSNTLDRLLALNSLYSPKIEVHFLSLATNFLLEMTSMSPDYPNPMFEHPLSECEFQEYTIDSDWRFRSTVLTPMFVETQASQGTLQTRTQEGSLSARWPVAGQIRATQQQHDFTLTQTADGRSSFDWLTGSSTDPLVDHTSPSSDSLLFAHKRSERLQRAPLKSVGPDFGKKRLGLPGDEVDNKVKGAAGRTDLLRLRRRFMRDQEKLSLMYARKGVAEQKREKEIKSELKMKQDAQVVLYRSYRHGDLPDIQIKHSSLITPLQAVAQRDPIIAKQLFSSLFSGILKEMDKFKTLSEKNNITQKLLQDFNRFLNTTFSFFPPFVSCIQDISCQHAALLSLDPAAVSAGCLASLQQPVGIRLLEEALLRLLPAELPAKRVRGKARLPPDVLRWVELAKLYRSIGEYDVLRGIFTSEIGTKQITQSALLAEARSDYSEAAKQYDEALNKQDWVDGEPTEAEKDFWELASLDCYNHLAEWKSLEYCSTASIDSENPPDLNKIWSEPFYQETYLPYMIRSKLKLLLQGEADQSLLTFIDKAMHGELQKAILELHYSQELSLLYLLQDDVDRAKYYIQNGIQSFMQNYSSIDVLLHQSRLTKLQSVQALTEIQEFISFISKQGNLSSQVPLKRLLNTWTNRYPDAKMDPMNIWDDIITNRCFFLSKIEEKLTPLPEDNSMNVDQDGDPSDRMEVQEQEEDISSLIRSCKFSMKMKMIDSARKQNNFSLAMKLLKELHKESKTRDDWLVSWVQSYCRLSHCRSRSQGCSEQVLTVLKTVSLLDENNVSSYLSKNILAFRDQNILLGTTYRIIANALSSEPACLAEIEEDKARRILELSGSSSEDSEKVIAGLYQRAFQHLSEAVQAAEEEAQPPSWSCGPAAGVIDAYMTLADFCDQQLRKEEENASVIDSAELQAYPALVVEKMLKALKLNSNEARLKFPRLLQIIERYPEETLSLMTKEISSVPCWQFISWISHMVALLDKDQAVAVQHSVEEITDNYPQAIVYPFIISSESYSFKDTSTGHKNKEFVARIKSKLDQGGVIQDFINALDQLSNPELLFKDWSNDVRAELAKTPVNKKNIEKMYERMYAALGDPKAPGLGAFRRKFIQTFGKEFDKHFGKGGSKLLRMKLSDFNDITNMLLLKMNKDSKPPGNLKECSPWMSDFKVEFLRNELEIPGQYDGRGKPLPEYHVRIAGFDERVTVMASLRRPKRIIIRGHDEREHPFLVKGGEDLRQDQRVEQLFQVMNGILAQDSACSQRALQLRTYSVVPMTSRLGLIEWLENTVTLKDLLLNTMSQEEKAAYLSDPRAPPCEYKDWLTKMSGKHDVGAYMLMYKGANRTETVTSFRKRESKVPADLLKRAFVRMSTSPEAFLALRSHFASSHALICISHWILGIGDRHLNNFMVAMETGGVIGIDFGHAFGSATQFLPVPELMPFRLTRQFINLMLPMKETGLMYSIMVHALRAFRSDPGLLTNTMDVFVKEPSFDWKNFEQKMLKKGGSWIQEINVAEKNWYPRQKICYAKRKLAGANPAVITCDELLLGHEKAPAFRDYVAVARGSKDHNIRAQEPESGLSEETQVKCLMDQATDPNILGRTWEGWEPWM", "test": "Inhibition of DNA-PK (unknown origin)"}
{"smiles": "COc1ncc(-c2cc3c(c(NC(=O)CN4CCOCC4)c2)COC3)cc1NS(C)(=O)=O", "values": [{"measurement": "IC50", "result": 2510, "unit": "nM"}]}
